{
  "source": "patent US11028084B2",
  "about": "“Selective inhibitors of gentotoxic steress-induced IKK/NF-κB pathways” (Max-Delbrück-Centrum für Molekulare Medizin in der …, priority 2016, dated 2021)",
  "key": {"[1]": {"test_system": "NF-κB DNA binding activity", "assay": "NF-κB DNA binding activity (EMSA) after γ-IR or etoposide, U2OS cells", "assay_type": "cell-based, human", "description": "FIG. 3: (A) U2OS cells were pre-treated with increasing concentrations of MW01 in duplicates in a 384 well plate. Then, cells were treated with etoposide, fixed and subjected to IF of p65. Spatial measurement of p65 cytosolic and nuclear localisation was used for calculation of p65 translocation rates. (B) U2OS cells were pre-treated with DMSO, MW01 and irradiated with γ-IR. After 90 min cells were lysed and subjected to SDS-PAGE/WB and EMSA. (C) Cells were pre-treated with different concentrations of MW01 as indicated, treated with γ-IR (C) or etoposide (D) and subjected to WB or EMSA, respectively. LDH in (C) represents the loading control.\nNuclear or whole cell lysates were incubated with a ^32P-labeled NF-κB DNA-[…]\nFor electrophoresis, a current of 26 mA was applied for 2 h. After drying the gel onto a Whatman paper, signals were visualised on an autoradiography film (GE Healthcare) after overnight incubation at −80° C. in a radiography cassette. All work using radioactive substances were done at a monitored work space suitable for radioactive work."}, "[2]": {"test_system": "genotoxic stress-activated NF-κB signaling", "assay": "TAK1 and p65 S536 phosphorylation after γ-irradiation, WB, HepG2 cells", "assay_type": "cell-based, human", "description": "FIG. 6: (A) U2OS cells were pre-treated with DMSO or MW01 and irradiated. Stimulation of cell with IL-1β served as a positive control for IκBα and p65 phosphorylation. Cells were lysed at indicated time points and used for WB analyses. (B,C) Similar experimental setup as in (A). (D) Experiment as in (A-C), but with other time points analysed and performed with HepG2 cells. PARP1 and LDH serve as loading controls.\nFIG. 9: HepG2 cells were pre-incubated with DMSO, MW01 (5 μM) or the ATM inhibitor Ku55933 (10 μM) and irradiated. After 60 min cells were harvested and processed. Immunochemical staining of Western blotting membranes was done using indicated antibodies.\n(§1) FIG. 14: (A) U2OS cells were pre-treated with different concentrations of olaparib prior to co-treatment with etoposide. Whole cell lysis was performed after 90 min and cleared lysates were used for WB with indicated antibodies. (B) U2OS cells were pre-treated with DMSO, olaparib or the ATM inhibitor Ku55933 and co-treated with etoposide. Cells were harvested after 45 min and subjected to SDS-PAGE/WB. Membranes were stained with the indicated antibodies. The experiment of (B) was performed simultaneously to the experiments of (A) and (E) to control functionality of olaparib in inhibiting PAR chain formation. (C) Densitometrical analyses of (A) and two further independent experiments done as shown in (A). (D) U2OS cells were pre-treated with the substances as indicated prior to irradiation. After 90 min mRNA was isolated, transcribed into cDNA and was used for expression analyses of the indicated genes using quantitative real-time PCR (qRT-PCR). (E) HepG2 cells were pre-treated with the PARP inhibitors olaparib, 3-AB and EB-47 prior to γ-irradiation. Cells were harvested after 15 and 90 min and subjected to SDS-PAGE/WB. Membranes were stained with the indicated antibodies. Error bars equal SEM."}, "[3]": {"test_system": "U2OS cells", "assay": "Caspase-3-dependent cleavage of PARP1, WB, U2OS cells", "assay_type": "cell-based, human", "description": "FIG. 16: (A) U2OS cells were pre-treated with DMSO or MW01 and irradiated. Cells were lysed 8 h post γ-IR and were used for western blotting and immunochemical staining. (B) HEK293 cells were pre-treated with DMSO or MW01 and irradiated. After 48 h cells were fixed and stained with crystal violet. Dissolved crystal violet was used for absorbance measurement in a visible light spectrophotometer at a wavelength of 595 nm. (C) HEK293 cells were pre-treated with DMSO or MW01 and irradiated. The percentage of viable cells within the population was calculated by exclusion of annexin V and propidium-iodide positive cells measured by flow cytometry. (D) MEF cells were pre-treated with DMSO or MW01 and irradiated. Cells were used for annexin V staining 24 h and 48 after γ-IR. Percentage of annexin V positive cell population was analysed using a flow cytometer. (E) Experiment done as shown in (D) but with HT1080 cells processed 8 h after irradiation. Statistical significance was calculated using students t-test."}, "[4]": {"molecular_target": "nuclear IKKγ-PIASy-PARP1-ATM signalosome (Homo sapiens, UniProt P09874+Q13315+Q8N2W9+Q9Y6K9)", "sequence (Q9Y6K9 whole entry)": "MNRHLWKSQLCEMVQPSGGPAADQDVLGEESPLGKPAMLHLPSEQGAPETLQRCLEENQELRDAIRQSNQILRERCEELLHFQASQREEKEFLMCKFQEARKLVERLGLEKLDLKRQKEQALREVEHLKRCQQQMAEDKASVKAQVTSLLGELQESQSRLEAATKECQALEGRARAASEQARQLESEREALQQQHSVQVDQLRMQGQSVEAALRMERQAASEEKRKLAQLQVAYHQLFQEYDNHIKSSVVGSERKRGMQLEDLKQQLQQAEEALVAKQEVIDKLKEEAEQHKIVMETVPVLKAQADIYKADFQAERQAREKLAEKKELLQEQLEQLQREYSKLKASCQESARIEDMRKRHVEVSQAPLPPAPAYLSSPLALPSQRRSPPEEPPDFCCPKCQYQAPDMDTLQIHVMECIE", "sequence (Q8N2W9 2-510 limits assumed)": "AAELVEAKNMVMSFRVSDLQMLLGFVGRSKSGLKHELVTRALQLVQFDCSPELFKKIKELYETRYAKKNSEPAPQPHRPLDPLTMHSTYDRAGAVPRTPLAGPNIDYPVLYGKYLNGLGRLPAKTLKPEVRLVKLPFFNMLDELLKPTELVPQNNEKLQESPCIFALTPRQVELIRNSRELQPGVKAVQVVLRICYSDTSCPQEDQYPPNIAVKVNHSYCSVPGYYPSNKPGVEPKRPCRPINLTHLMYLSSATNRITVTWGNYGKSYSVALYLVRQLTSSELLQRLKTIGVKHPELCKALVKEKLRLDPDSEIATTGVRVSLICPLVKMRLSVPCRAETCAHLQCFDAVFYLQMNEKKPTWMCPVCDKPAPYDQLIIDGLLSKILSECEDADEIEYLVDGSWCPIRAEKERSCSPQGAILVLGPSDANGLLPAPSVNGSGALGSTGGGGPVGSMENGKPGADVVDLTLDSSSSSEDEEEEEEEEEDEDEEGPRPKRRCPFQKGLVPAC", "sequence (P09874 2-1014 limits assumed)": "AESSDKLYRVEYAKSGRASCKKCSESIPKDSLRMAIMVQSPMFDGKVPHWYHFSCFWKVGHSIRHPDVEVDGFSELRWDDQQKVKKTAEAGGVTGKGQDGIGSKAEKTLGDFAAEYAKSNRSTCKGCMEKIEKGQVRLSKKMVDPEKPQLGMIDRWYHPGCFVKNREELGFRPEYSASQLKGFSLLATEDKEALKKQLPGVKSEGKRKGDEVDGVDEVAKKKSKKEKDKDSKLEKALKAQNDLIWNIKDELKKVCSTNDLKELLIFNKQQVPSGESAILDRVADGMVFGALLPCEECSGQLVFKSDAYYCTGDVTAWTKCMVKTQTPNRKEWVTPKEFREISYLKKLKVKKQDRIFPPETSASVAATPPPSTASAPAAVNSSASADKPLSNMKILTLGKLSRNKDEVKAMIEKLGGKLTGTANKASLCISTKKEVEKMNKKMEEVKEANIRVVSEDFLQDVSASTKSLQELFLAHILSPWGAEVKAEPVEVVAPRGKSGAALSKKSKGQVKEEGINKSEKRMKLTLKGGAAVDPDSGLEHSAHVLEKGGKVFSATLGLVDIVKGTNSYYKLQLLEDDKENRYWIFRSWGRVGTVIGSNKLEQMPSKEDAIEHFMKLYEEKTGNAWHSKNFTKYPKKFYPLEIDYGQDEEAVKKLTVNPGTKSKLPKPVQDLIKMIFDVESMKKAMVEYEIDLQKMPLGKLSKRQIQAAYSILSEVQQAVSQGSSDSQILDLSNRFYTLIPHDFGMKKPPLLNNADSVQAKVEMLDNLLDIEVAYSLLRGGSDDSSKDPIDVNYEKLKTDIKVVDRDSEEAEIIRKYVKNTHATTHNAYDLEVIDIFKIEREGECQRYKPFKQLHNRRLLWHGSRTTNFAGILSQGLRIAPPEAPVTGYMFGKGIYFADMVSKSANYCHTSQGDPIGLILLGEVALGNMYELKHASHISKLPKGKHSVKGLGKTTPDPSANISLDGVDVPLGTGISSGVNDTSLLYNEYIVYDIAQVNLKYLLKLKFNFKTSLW", "sequence (Q13315 2-3056 limits assumed)": "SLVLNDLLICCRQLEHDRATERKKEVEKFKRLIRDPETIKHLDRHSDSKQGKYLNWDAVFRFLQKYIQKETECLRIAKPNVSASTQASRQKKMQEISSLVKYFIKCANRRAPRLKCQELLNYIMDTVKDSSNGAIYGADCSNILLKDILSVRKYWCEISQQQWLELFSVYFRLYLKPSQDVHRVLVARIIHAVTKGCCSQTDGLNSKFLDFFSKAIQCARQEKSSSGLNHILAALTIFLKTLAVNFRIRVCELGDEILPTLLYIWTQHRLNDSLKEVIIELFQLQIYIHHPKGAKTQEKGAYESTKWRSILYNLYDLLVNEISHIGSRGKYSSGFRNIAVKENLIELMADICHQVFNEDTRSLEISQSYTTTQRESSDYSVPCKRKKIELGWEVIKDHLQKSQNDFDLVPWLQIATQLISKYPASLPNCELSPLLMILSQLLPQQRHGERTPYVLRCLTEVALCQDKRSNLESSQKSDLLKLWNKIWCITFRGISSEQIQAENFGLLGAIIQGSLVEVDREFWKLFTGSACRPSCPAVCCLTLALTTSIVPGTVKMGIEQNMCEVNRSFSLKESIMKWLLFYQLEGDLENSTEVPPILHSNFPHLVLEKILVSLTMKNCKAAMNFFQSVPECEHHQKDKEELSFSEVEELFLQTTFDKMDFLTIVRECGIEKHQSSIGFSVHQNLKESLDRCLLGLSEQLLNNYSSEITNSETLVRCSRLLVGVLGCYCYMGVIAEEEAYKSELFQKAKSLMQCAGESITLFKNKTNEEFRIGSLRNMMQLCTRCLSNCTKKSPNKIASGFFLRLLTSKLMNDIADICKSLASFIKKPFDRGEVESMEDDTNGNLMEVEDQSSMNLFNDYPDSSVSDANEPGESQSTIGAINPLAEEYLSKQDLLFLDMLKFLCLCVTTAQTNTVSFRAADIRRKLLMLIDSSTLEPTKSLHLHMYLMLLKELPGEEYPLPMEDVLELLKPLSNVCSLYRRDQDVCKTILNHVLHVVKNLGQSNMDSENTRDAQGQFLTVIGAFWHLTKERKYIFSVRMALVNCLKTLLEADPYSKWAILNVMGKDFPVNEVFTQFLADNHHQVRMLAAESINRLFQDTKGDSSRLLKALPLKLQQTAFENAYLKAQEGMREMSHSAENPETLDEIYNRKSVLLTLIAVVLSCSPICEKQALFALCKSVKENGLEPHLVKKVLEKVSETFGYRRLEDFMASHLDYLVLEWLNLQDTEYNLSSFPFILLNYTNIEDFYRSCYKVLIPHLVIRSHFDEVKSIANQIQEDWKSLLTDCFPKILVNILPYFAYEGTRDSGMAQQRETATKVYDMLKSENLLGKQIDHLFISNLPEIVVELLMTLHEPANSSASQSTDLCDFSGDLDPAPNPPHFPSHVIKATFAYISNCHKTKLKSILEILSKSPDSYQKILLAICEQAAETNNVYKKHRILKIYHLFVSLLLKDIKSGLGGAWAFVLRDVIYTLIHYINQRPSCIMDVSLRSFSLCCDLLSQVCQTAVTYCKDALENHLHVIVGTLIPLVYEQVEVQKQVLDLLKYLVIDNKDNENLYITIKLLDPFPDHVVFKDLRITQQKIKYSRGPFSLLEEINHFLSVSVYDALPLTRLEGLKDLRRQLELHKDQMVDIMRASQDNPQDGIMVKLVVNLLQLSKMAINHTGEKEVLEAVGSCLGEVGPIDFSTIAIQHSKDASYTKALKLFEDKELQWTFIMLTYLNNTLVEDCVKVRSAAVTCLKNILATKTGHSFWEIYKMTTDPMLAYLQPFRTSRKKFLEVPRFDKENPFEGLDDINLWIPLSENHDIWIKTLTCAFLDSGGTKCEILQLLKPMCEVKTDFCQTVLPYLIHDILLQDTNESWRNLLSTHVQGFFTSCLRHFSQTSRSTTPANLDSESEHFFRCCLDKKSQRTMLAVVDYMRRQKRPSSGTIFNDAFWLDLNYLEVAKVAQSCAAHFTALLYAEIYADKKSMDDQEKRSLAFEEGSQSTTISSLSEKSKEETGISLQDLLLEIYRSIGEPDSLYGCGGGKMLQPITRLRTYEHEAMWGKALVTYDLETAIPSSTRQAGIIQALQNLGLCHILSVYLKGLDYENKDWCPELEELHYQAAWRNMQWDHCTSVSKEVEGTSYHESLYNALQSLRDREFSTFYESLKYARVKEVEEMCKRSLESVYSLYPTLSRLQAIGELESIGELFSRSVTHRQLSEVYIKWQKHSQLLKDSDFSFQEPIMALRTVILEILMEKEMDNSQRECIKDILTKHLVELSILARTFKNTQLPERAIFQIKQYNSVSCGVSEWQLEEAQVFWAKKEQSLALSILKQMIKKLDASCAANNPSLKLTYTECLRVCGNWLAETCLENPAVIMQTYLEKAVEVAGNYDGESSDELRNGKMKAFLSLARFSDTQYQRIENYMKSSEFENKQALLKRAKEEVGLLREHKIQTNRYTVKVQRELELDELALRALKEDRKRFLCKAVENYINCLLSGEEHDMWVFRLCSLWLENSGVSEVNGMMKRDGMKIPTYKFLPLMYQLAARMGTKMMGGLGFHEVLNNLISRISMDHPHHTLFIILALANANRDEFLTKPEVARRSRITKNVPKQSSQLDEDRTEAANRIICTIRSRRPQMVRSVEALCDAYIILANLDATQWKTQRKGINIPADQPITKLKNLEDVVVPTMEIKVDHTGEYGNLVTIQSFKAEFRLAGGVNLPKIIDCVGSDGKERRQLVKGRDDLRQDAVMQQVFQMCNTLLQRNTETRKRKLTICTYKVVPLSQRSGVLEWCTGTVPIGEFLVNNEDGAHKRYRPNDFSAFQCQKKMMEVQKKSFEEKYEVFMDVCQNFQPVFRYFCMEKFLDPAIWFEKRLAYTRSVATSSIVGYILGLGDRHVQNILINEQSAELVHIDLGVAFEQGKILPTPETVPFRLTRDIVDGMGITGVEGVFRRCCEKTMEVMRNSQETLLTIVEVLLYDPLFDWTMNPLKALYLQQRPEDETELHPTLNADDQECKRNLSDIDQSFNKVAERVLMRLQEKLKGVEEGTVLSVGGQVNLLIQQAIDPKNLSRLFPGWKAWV", "assay": "Nuclear PARP1-signalosome formation, IKKγ co-immunoprecipitation, HEK293 cells", "assay_type": "cell-based", "design": "endogenous in cells; host or cells: HEK293", "description": "FIG. 8: (A) HepG2 cells were pre-treated with DMSO or MW01 and irradiated. Nuclear cell extracts (NE) were used for PIASy immunoprecipitation (IP). Western blot membranes were incubated with indicated antibodies. (B) Experiment as shown in (A), but with IKKγ IP. (C) Experiment as shown in (B), but done in HEK293 cells. (D) Experiment done as shown in […], but repeated in MEF cells.\nFollowing cell lysis the protein concentration of samples was determined. For input controls, 40 μg lysate were mixed with 6×SDS-buffer and denatured by heating to 95° C. for 4 min. Approximately 1500 μg protein lysate was used for pulldown and samples volumes were equalled with lysis buffer. Lysates were precleared with 30 μl sepharose A or sepharose G beads (depending on the antibody type used for pulldown) for 30 min, and centrifuged for 5 min at 1,500×g. The supernatant was transferred to a new reaction tube. Primary antibody (2-2.5 μg) was added to the cleared lysate for immunoprecipitation overnight while rotating at 4° C. The next day 30 μl sepharose beads per sample were used for immobilisation of antibodies. Following 4 washes with IP wash buffer precipitated proteins were eluted by mixing with 3×SDS-buffer and heating to 95° C. for 4 min."}, "[5]": {"molecular_target": "PARP1 (Homo sapiens, UniProt P09874)", "assay": "PARP1 enzymatic activity, PAR chain formation, U2OS cells", "assay_type": "cell-based", "design": "Experiment performed as described for (A), but using U2OS cells; endogenous in cells; host or cells: U2OS", "settings": "γ-irradiation", "description": "FIG. 10: (A) MEF cells were pre-treated with the indicated substances, irradiated and cell lysates were used for poly(ADP)-ribose probing using a specific antibody. (B) Experiment performed as described for (A), but using U2OS cells.\nas §1, with “Membranes were stained with the indicated antibodies. Error bars equal SEM.” left out"}},
  "data": [
    {"molecule": "COc1ccc2c(c1OC)c(=O)n1c3ccc(O)cc3c3ccnc2c31", "note": "[MW01, 12-hydroxy-6,7-dimethoxy-8H-benzo[c]indolo[3,2,1-ij][1,5]naphthyridin-8-one]", "values": [
      {"measurement": "etoposide-induced NF-κB DNA binding activity", "setting": "[1]; etoposide", "value": "inhibited by MW01 pre-treatment in a concentration dependent manner"},
      {"measurement": "γ-IR-induced NF-κB DNA binding activity", "setting": "[1]; γ-IR, 90 min, U2OS", "value": "inhibited the γ-IR-induced NF-κB DNA binding activity"},
      {"measurement": "p65 S536 phosphorylation level", "setting": "[2]; HepG2, 5 μM, irradiated, 60 min", "value": "drastically reduced"},
      {"measurement": "TAK1 and p65 phosphorylation", "setting": "[2]; HepG2, γ-IR", "value": "abolished"},
      {"measurement": "PARP1 cleavage", "setting": "[3]; 8 h post γ-IR", "value": "strongly increased"},
      {"measurement": "PARP1 cleavage", "setting": "[3]; resting cells", "value": "slight increase"},
      {"measurement": "Co-IP of PARP-1 with IKKγ", "setting": "[4]; HEK293, data not shown", "value": "abrogated Co-IP of PARP-1 with IKKγ"},
      {"measurement": "IKKγ-PIASy-interaction (PIASy co-immunoprecipitation with IKKγ)", "setting": "[4]; HEK293, γ-irradiation", "value": "the interaction was abolished"},
      {"measurement": "PAR chain formation / PARP1 enzymatic activity", "setting": "[5]", "value": "did not interfere with activation of PARP1 enzymatic activity"}
    ]}
  ]
}
